Experimental data taken from PubChem BioAssay (NCI).
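Growth conditions: 96-well plates. Treatment: test compound, 48 hours, 5 concentrations. Analysis: linear interpolation between bracketing concentrations; unreached endpoints set to highest concentration. TGI marks complete inhibition of growth.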

Tests used:
Test in all cases: NCI-60 cell line screen, 48 h
SK-MEL-28 melanoma = tested on: SK-MEL-28 melanoma
T-47D breast = tested on: T-47D breast
K-562 leukemia = tested on: K-562 leukemia
NCI/ADR-RES ovarian = tested on: NCI/ADR-RES ovarian
MDA-MB-231 breast = tested on: MDA-MB-231 breast
SN12C renal = tested on: SN12C renal
HL-60(TB) leukemia = tested on: HL-60(TB) leukemia
A498 renal = tested on: A498 renal
HCT-116 colon = tested on: HCT-116 colon
HOP-62 NSCLC = tested on: HOP-62 NSCLC
TK-10 renal = tested on: TK-10 renal
MDA-N = tested on: MDA-N
OVCAR-8 ovarian = tested on: OVCAR-8 ovarian
UO-31 renal = tested on: UO-31 renal
BT-549 breast = tested on: BT-549 breast
HT29 colon = tested on: HT29 colon
SF-295 CNS = tested on: SF-295 CNS
SK-MEL-5 melanoma = tested on: SK-MEL-5 melanoma
NCI-H460 lung = tested on: NCI-H460 lung
MALME-3M melanoma = tested on: MALME-3M melanoma
OVCAR-3 ovarian = tested on: OVCAR-3 ovarian
HCC-2998 colon = tested on: HCC-2998 colon
A549 NSCLC = tested on: A549 NSCLC
HS 578T breast = tested on: HS 578T breast
UACC-257 melanoma = tested on: UACC-257 melanoma
ACHN renal = tested on: ACHN renal
SK-MEL-2 melanoma = tested on: SK-MEL-2 melanoma
LOX IMVI melanoma = tested on: LOX IMVI melanoma
U251 CNS = tested on: U251 CNS
M14 melanoma = tested on: M14 melanoma
IGROV1 ovarian = tested on: IGROV1 ovarian
RPMI-8226 leukemia = tested on: RPMI-8226 leukemia
NCI-H226 lung = tested on: NCI-H226 lung
MDA-MB-435 = tested on: MDA-MB-435
OVCAR-5 ovarian = tested on: OVCAR-5 ovarian
NCI-H23 lung = tested on: NCI-H23 lung
UACC-62 melanoma = tested on: UACC-62 melanoma
SNB-19 CNS = tested on: SNB-19 CNS
SW-620 colon = tested on: SW-620 colon
CAKI-1 renal = tested on: CAKI-1 renal
NCI-H522 lung = tested on: NCI-H522 lung
PC-3 prostate = tested on: PC-3 prostate
KM12 colon = tested on: KM12 colon
HCT-15 colon = tested on: HCT-15 colon
SR leukemia = tested on: SR leukemia
786-0 renal = tested on: 786-0 renal
EKVX NSCLC = tested on: EKVX NSCLC
MOLT-4 leukemia = tested on: MOLT-4 leukemia
OVCAR-4 ovarian = tested on: OVCAR-4 ovarian
RXF 393 renal = tested on: RXF 393 renal
HOP-92 NSCLC = tested on: HOP-92 NSCLC
SF-268 CNS = tested on: SF-268 CNS
SNB-75 CNS = tested on: SNB-75 CNS
MCF7 breast = tested on: MCF7 breast
COLO 205 colon = tested on: COLO 205 colon
CCRF-CEM leukemia = tested on: CCRF-CEM leukemia
SF-539 CNS = tested on: SF-539 CNS
DU-145 prostate = tested on: DU-145 prostate
SK-OV-3 ovarian = tested on: SK-OV-3 ovarian

COc1cc(C)cc(OC)c1/C=C/C(=O)O
TGI (SK-MEL-28 melanoma): > 100 µM
TGI (T-47D breast): > 100 µM
TGI (K-562 leukemia): > 100 µM
TGI (NCI/ADR-RES ovarian): > 100 µM
TGI (MDA-MB-231 breast): > 100 µM
TGI (SN12C renal): > 100 µM
TGI (HL-60(TB) leukemia): > 100 µM
TGI (A498 renal): > 100 µM
TGI (HCT-116 colon): > 100 µM
TGI (HOP-62 NSCLC): > 100 µM
TGI (TK-10 renal): > 100 µM
TGI (MDA-N): > 100 µM
TGI (OVCAR-8 ovarian): > 100 µM
TGI (UO-31 renal): > 100 µM
TGI (BT-549 breast): > 100 µM
TGI (HT29 colon): > 100 µM
TGI (SF-295 CNS): > 100 µM
TGI (SK-MEL-5 melanoma): > 100 µM
TGI (NCI-H460 lung): > 100 µM
TGI (MALME-3M melanoma): > 100 µM
TGI (OVCAR-3 ovarian): 87.6 µM
TGI (HCC-2998 colon): > 100 µM
TGI (A549 NSCLC): > 100 µM
TGI (HS 578T breast): > 100 µM
TGI (UACC-257 melanoma): > 100 µM
TGI (ACHN renal): > 100 µM
TGI (SK-MEL-2 melanoma): > 100 µM
TGI (LOX IMVI melanoma): > 100 µM
TGI (U251 CNS): > 100 µM
TGI (M14 melanoma): > 100 µM
TGI (IGROV1 ovarian): > 100 µM
TGI (RPMI-8226 leukemia): > 100 µM
TGI (NCI-H226 lung): > 100 µM
TGI (MDA-MB-435): > 100 µM
TGI (OVCAR-5 ovarian): > 100 µM
TGI (NCI-H23 lung): > 100 µM
TGI (UACC-62 melanoma): > 100 µM
TGI (SNB-19 CNS): > 100 µM
TGI (SW-620 colon): > 100 µM
TGI (CAKI-1 renal): > 100 µM
TGI (NCI-H522 lung): > 100 µM
TGI (PC-3 prostate): > 100 µM
TGI (KM12 colon): > 100 µM
TGI (HCT-15 colon): > 100 µM
TGI (SR leukemia): > 100 µM
TGI (786-0 renal): > 100 µM
TGI (EKVX NSCLC): > 100 µM
TGI (MOLT-4 leukemia): > 100 µM
TGI (OVCAR-4 ovarian): > 100 µM
TGI (RXF 393 renal): > 100 µM
TGI (HOP-92 NSCLC): > 100 µM
TGI (SF-268 CNS): > 100 µM

CCN1CCCCC(=N\O)/C(=N/O)CCCC1
TGI (SK-MEL-28 melanoma): > 100 µM
TGI (SNB-75 CNS): > 100 µM
TGI (MCF7 breast): > 100 µM
TGI (NCI/ADR-RES ovarian): > 100 µM
TGI (MDA-MB-231 breast): > 100 µM
TGI (SN12C renal): > 100 µM
TGI (HL-60(TB) leukemia): > 100 µM
TGI (A498 renal): > 100 µM
TGI (HCT-116 colon): > 100 µM
TGI (HOP-62 NSCLC): > 100 µM
TGI (TK-10 renal): > 100 µM
TGI (MDA-N): > 100 µM
TGI (COLO 205 colon): > 100 µM
TGI (OVCAR-8 ovarian): > 100 µM
TGI (UO-31 renal): > 100 µM
TGI (BT-549 breast): > 100 µM
TGI (HT29 colon): > 100 µM
TGI (SF-295 CNS): > 100 µM
TGI (SK-MEL-5 melanoma): > 100 µM
TGI (NCI-H460 lung): > 100 µM
TGI (MALME-3M melanoma): > 100 µM
TGI (OVCAR-3 ovarian): > 100 µM
TGI (A549 NSCLC): > 100 µM
TGI (HS 578T breast): > 100 µM
TGI (UACC-257 melanoma): > 100 µM
TGI (ACHN renal): > 100 µM
TGI (SK-MEL-2 melanoma): > 100 µM
TGI (LOX IMVI melanoma): > 100 µM
TGI (U251 CNS): > 100 µM
TGI (M14 melanoma): > 100 µM
TGI (IGROV1 ovarian): > 100 µM
TGI (CCRF-CEM leukemia): > 100 µM
TGI (RPMI-8226 leukemia): > 100 µM
TGI (NCI-H226 lung): > 100 µM
TGI (MDA-MB-435): > 100 µM
TGI (OVCAR-5 ovarian): > 100 µM
TGI (SF-539 CNS): > 100 µM
TGI (NCI-H23 lung): > 100 µM
TGI (UACC-62 melanoma): > 100 µM
TGI (SNB-19 CNS): > 100 µM
TGI (SW-620 colon): > 100 µM
TGI (CAKI-1 renal): > 100 µM
TGI (NCI-H522 lung): > 100 µM
TGI (PC-3 prostate): > 100 µM
TGI (KM12 colon): > 100 µM
TGI (HCT-15 colon): > 100 µM
TGI (DU-145 prostate): > 100 µM
TGI (SR leukemia): > 100 µM
TGI (786-0 renal): > 100 µM
TGI (EKVX NSCLC): > 100 µM
TGI (SK-OV-3 ovarian): > 100 µM
TGI (MOLT-4 leukemia): > 100 µM
TGI (OVCAR-4 ovarian): > 100 µM
TGI (RXF 393 renal): > 100 µM
TGI (HOP-92 NSCLC): > 100 µM
TGI (SF-268 CNS): > 100 µM
